Legend:
MAPK14 (human) [1] = biological target: MAPK14 (human) (UniProt Q16539); assay: Inhibition of MAPK14 Kinase Activity by EGFRP Assay
MAPK14 (human) [2] = biological target: MAPK14 (human) (UniProt Q16539); assay: Inhibition of LPS Stimulated TNF Production by U937 Cells; details: for inhibition: concentration not given here
MAPK14 (human) [3] = biological target: MAPK14 (human) (UniProt Q16539); assay: Inhibition of MAPK14 Kinase Activity by PHAS-I Assay; details: for inhibition: concentration not given here

MAPK14 (human), sequence (Q16539 whole entry, looked up): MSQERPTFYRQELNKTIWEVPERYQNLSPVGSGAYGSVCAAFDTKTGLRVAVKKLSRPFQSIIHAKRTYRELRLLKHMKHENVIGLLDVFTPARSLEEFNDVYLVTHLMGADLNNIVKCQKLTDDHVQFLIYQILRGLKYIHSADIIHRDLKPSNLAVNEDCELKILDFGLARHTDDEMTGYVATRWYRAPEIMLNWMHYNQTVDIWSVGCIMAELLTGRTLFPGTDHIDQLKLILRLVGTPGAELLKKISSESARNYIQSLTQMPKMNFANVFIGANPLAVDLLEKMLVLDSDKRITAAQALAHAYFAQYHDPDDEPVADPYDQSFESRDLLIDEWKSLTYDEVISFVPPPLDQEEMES

Row | IC50 (MAPK14 (human) [1]) [nM] | IC50 (MAPK14 (human) [2]) [nM] | inhibition (MAPK14 (human) [3]) [%] | inhibition (MAPK14 (human) [2]) [%] | IC50 (MAPK14 (human) [3]) [nM] | SMILES
1 | 104 |  |  |  |  | Cc1cccc(-c2c(-c3ccnc(C)c3)cnn2C)c1
2 | 103 |  |  |  |  | Cn1cc(-c2ccncc2)c(-c2cccc(Cl)c2)n1.Cn1ncc(-c2ccncc2)c1-c1cccc(Cl)c1
3 | < 10 | 7.4 |  |  |  | Fc1ccc(-c2n[nH]cc2-c2ccnc(NCCn3ccnc3)c2)cc1
4 |  | 990 | 66 |  |  | O=C(NCCCc1[nH]nc(-c2ccc(F)cc2)c1-c1ccncc1)C1CCC1
5 |  | 790 | 71 |  |  | COc1cccc(C(=O)NCCCc2[nH]nc(-c3ccc(F)cc3)c2-c2ccncc2)c1
6 |  | > 10000 | 55 |  |  | Cc1c(-c2ccncc2)c(-c2ccc(F)cc2)nn1CC(=O)N(CC(C)C)CC(C)C
7 |  |  | 35 | 26 |  | O=C(NCCc1[nH]nc(-c2ccc(F)cc2)c1-c1ccncc1)Nc1ccc(-c2ccccc2)cc1
8 |  | > 1000 |  |  | 91 | CN1CCN(CCCNC(=O)NCCCc2[nH]nc(-c3ccc(F)cc3)c2-c2ccncc2)CC1
9 |  |  | 61 | 23 |  | COc1ccc(S(=O)(=O)NCCc2[nH]nc(-c3ccc(F)cc3)c2-c2ccncc2)cc1
10 |  |  | 94 | 76 |  | CCC(C(=O)NCc1[nH]nc(-c2ccc(F)cc2)c1-c1ccncc1)c1ccccc1 (configuration not stated)
11 |  |  |  | 46 | 660 | CNC(=O)CC[C@H](NC(C)=O)c1[nH]nc(-c2ccc(F)cc2)c1-c1ccncc1
12 |  | 520 | 62 |  |  | COc1ccccc1NC(=O)NCCc1[nH]nc(-c2ccc(F)cc2)c1-c1ccncc1
13 |  |  |  | 40 | 130 | CCN(CC)C(=O)NCc1[nH]nc(-c2ccc(F)cc2)c1-c1ccncc1
14 |  |  | 79 | 55 |  | CCOC(=O)NCCc1[nH]nc(-c2ccc(F)cc2)c1-c1ccncc1
15 |  |  | 67 | 25 |  | CC(C)=CC(=O)NCCc1[nH]nc(-c2ccc(F)cc2)c1-c1ccncc1
16 |  | 590 | 79 |  |  | C=CCOC(=O)NCCCc1[nH]nc(-c2ccc(F)cc2)c1-c1ccncc1
17 |  |  | 89 | 57 |  | CS(=O)(=O)NCCc1[nH]nc(-c2ccc(F)cc2)c1-c1ccncc1
18 |  |  | 42 | 24 |  | Cc1c(-c2ccncc2)c(-c2ccc(F)cc2)nn1CC(=O)N1CCCCC1C[C@@H]1CCCN1C (some centres not stated)
19 |  |  | 93 | 70 |  | CCS(=O)(=O)NCCc1[nH]nc(-c2ccc(F)cc2)c1-c1ccncc1
20 |  |  | 63 | 35 |  | O=C(NCCc1[nH]nc(-c2ccc(F)cc2)c1-c1ccncc1)Nc1ccccc1-c1ccccc1
21 |  |  | 58 | 10 |  | O=S(=O)(/C=C/c1ccccc1)NCCc1[nH]nc(-c2ccc(F)cc2)c1-c1ccncc1
22 |  |  | 66 | 48 |  | O=C(NCCc1[nH]nc(-c2ccc(F)cc2)c1-c1ccncc1)Nc1ccccc1OC(F)(F)F
23 |  |  | 79 | 23 |  | O=C(NCCc1[nH]nc(-c2ccc(F)cc2)c1-c1ccncc1)Nc1ccc(Cl)c(Cl)c1

Row | IC50 (MAPK14 (human) [1]) [nM] | IC50 (MAPK14 (human) [2]) [nM] | inhibition (MAPK14 (human) [3]) [%] | inhibition (MAPK14 (human) [2]) [%] | IC50 (MAPK14 (human) [3]) [nM] | SMILES
24 |  |  | 77 | 45 |  | O=C(NCCc1[nH]nc(-c2ccc(F)cc2)c1-c1ccncc1)c1ccno1
25 |  |  | 44 | 22 |  | CCOC(=O)C(CCSC)NC(=O)NCc1[nH]nc(-c2ccc(F)cc2)c1-c1ccncc1 (configuration not stated)
26 |  | > 10000 | 86 |  |  | CCCCCCCCOc1cccc(NC(=O)Cn2nc(-c3ccc(F)cc3)c(-c3ccncc3)c2C)c1
27 |  | > 10000 | 47 |  |  | Cc1cc(Cl)ccc1OCC1SCCN1C(=O)Cn1nc(-c2ccc(F)cc2)c(-c2ccncc2)c1C (configuration not stated)
28 |  |  | 85 | 2 |  | CC(NC(=O)NCCc1[nH]nc(-c2ccc(F)cc2)c1-c1ccncc1)c1cccc2ccccc12 (configuration not stated)
29 |  |  | 67 | 19 |  | CCN(CC)C(=O)NCCc1[nH]nc(-c2ccc(F)cc2)c1-c1ccncc1
30 |  | > 1000 | 51 |  |  | CCC(=O)C(=O)CNC(=O)NCc1[nH]nc(-c2ccc(F)cc2)c1-c1ccncc1
31 |  |  | 55 | 10 |  | CCN(CC)CCN(Cc1ccc(Cl)cc1)C(=O)Cn1nc(-c2ccc(F)cc2)c(-c2ccncc2)c1C
32 |  |  | 83 | 18 |  | Cc1cccc(C)c1NC(=O)Cn1nc(-c2ccc(F)cc2)c(-c2ccncc2)c1C
33 | 44 |  |  |  |  | Cc1cc(-c2cn(C)nc2-c2cccc(Cl)c2)ccn1.Cc1cc(-c2cnn(C)c2-c2cccc(Cl)c2)ccn1
34 |  |  | 81 | 25 |  | O=C(NCCc1[nH]nc(-c2ccc(F)cc2)c1-c1ccncc1)N[C@@H]1C[C@@H]1c1ccccc1
35 |  | 208 |  |  | 800 | Cc1[nH]nc(-c2ccc3c(c2)CCCO3)c1-c1ccncc1
36 |  |  | 71 | 84 |  | O=C(CCC1CC=CC1)NCc1[nH]nc(-c2ccc(F)cc2)c1-c1ccncc1
37 |  | > 10000 | 62 |  |  | Cc1c(-c2ccncc2)c(-c2ccc(F)cc2)nn1CC(=O)N(C)CCN(C)C
38 |  |  | 70 | 27 |  | CCOC(=O)CNC(=O)NCc1[nH]nc(-c2ccc(F)cc2)c1-c1ccncc1
39 |  |  | 88 | 20 |  | O=S(=O)(NCCc1[nH]nc(-c2ccc(F)cc2)c1-c1ccncc1)c1ccccc1
40 |  |  | 78 | 79 |  | CC(=O)NCCc1[nH]nc(-c2ccc(F)cc2)c1-c1ccncc1
41 |  | 10000 | 94 |  |  | Cc1ccc(S(=O)(=O)N[C@H](CCc2ccccc2)C(=O)NCc2[nH]nc(-c3ccc(F)cc3)c2-c2ccncc2)cc1
42 |  |  | 88 | 34 |  | O=S(=O)(NCCc1[nH]nc(-c2ccc(F)cc2)c1-c1ccncc1)c1ccc(F)cc1F
43 |  |  | 74 | 29 |  | O=C(NCCc1[nH]nc(-c2ccc(F)cc2)c1-c1ccncc1)c1ccccc1
44 |  |  | 51 | 24 |  | Cc1c(-c2ccncc2)c(-c2ccc(F)cc2)nn1CC(=O)N1CCCN(C)CC1
45 |  |  | 83 | 46 |  | Cc1c(-c2ccncc2)c(-c2ccc(F)cc2)nn1CC(=O)N[C@@H](C)c1ccccc1

From the Kinase Knowledgebase extract (Sharma et al. 2016)
